From PubChem BioAssay (NCI)
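Step 1: Grow cells in 96-well plates. Step 2: Expose to compound for 48 hours at 5 concentrations. Step 3: Interpolate endpoints linearly; if unreached, use highest concentration. TGI is the concentration that stops growth completely.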

How the values were obtained:
Assay in all cases: NCI-60 cell line screen, 48 h
786-0 renal = tested on: 786-0 renal
A498 renal = tested on: A498 renal
A549 NSCLC = tested on: A549 NSCLC
ACHN renal = tested on: ACHN renal
CAKI-1 renal = tested on: CAKI-1 renal
CCRF-CEM leukemia = tested on: CCRF-CEM leukemia
COLO 205 colon = tested on: COLO 205 colon
DLD-1 colon = tested on: DLD-1 colon
DMS 114 small cell lung = tested on: DMS 114 small cell lung
DMS 273 small cell lung = tested on: DMS 273 small cell lung
EKVX NSCLC = tested on: EKVX NSCLC
HCC-2998 colon = tested on: HCC-2998 colon
HCT-116 colon = tested on: HCT-116 colon
HCT-15 colon = tested on: HCT-15 colon
HL-60(TB) leukemia = tested on: HL-60(TB) leukemia
HOP-18 NSCLC = tested on: HOP-18 NSCLC
HOP-62 NSCLC = tested on: HOP-62 NSCLC
HT29 colon = tested on: HT29 colon
K-562 leukemia = tested on: K-562 leukemia
KM12 colon = tested on: KM12 colon
KM20L2 colon = tested on: KM20L2 colon
LOX IMVI melanoma = tested on: LOX IMVI melanoma
LXFL 529 NSCLC = tested on: LXFL 529 NSCLC
M14 melanoma = tested on: M14 melanoma
M19-MEL melanoma = tested on: M19-MEL melanoma
MALME-3M melanoma = tested on: MALME-3M melanoma
MOLT-4 leukemia = tested on: MOLT-4 leukemia
NCI-H226 lung = tested on: NCI-H226 lung
NCI-H460 lung = tested on: NCI-H460 lung
NCI-H522 lung = tested on: NCI-H522 lung
OVCAR-3 ovarian = tested on: OVCAR-3 ovarian
OVCAR-5 ovarian = tested on: OVCAR-5 ovarian
OVCAR-8 ovarian = tested on: OVCAR-8 ovarian
RPMI-8226 leukemia = tested on: RPMI-8226 leukemia
RXF 393 renal = tested on: RXF 393 renal
SF-268 CNS = tested on: SF-268 CNS
SF-295 CNS = tested on: SF-295 CNS
SF-539 CNS = tested on: SF-539 CNS
SK-MEL-2 melanoma = tested on: SK-MEL-2 melanoma
SK-MEL-28 melanoma = tested on: SK-MEL-28 melanoma
SK-MEL-5 melanoma = tested on: SK-MEL-5 melanoma
SK-OV-3 ovarian = tested on: SK-OV-3 ovarian
SN12C renal = tested on: SN12C renal
SNB-19 CNS = tested on: SNB-19 CNS
SNB-75 CNS = tested on: SNB-75 CNS
SNB-78 CNS = tested on: SNB-78 CNS
TK-10 renal = tested on: TK-10 renal
U251 CNS = tested on: U251 CNS
UACC-62 melanoma = tested on: UACC-62 melanoma
UO-31 renal = tested on: UO-31 renal
HOP-92 NSCLC = tested on: HOP-92 NSCLC
IGROV1 ovarian = tested on: IGROV1 ovarian
NCI-H23 lung = tested on: NCI-H23 lung
OVCAR-4 ovarian = tested on: OVCAR-4 ovarian
SR leukemia = tested on: SR leukemia
SW-620 colon = tested on: SW-620 colon
UACC-257 melanoma = tested on: UACC-257 melanoma

Measured: TGI

O=C(NO)C12C3C4C1C1C2C3C41C(=O)NO (stereo not given)
not listed: HOP-92 NSCLC | IGROV1 ovarian | NCI-H23 lung | OVCAR-4 ovarian | SR leukemia | SW-620 colon | UACC-257 melanoma
> 100 µM: all other assays above

COc1ccc(C(c2ccccc2)C(C)C(=O)c2c(C)cc(C)cc2C)cc1 (stereo not given)
> 100 µM: HT29 colon | K-562 leukemia | M19-MEL melanoma | MALME-3M melanoma | NCI-H522 lung | RPMI-8226 leukemia

CCCCCCCC/C=C\CCCCCCCC(=O)NCCN(CCN)C(=O)CCCCCCC/C=C\CCCCCCCC
not listed: EKVX NSCLC | KM12 colon | NCI-H522 lung | RXF 393 renal | SF-539 CNS | SK-MEL-2 melanoma | SNB-75 CNS | SNB-78 CNS
> 100 µM: all other assays above
